The source made the active and inactive calls. No cut-off for these calls is given here.
Key:
[1] = test system: Staphylococcus aureus; assay: Antimicrobial activity against Staphylococcus aureus assessed as inhibition of growth incubated for 18 hrs by CLSI guidelines based assay; assay type: functional
[2] = test system: Stenotrophomonas maltophilia; assay: Antimicrobial activity against Stenotrophomonas maltophilia assessed as inhibition of growth incubated for 18 hrs by CLSI guidelines based assay; assay type: functional
[3] = test system: Staphylococcus aureus; assay: Antibacterial activity against NDM-1 gene-resistant Staphylococcus aureus assessed as inhibition of bacterial growth incubated for 18 hrs by CLSI guidelines based assay; assay type: functional
[4] = test system: Staphylococcus aureus; assay: Antibacterial activity against methicillin-resistant Staphylococcus aureus assessed as inhibition of bacterial growth measured after 3 hrs in presence of plasma; assay type: functional, organism-based
[5] = test system: Staphylococcus aureus; assay: Antibacterial activity against methicillin-resistant Staphylococcus aureus assessed as inhibition of bacterial growth measured immediately after addition in presence of plasma; assay type: functional, organism-based
[6] = test system: Staphylococcus aureus; assay: Antibacterial activity against methicillin-resistant Staphylococcus aureus assessed as inhibition of bacterial growth measured after 6 hrs in presence of plasma; assay type: functional, organism-based
[7] = test system: Staphylococcus aureus; assay: Bactericidal activity against Staphylococcus aureus assessed as bacterial killing in presence of Mueller-Hinton broth; assay type: functional, organism-based
[8] = test system: Staphylococcus aureus; assay: Bactericidal activity against Staphylococcus aureus assessed as bacterial killing in presence of 50% serum; assay type: functional, organism-based
[9] = test system: Staphylococcus aureus; assay: Bactericidal activity against early exponential phase Staphylococcus aureus assessed as bacterial killing at 3 ug/ml incubated for 4 hrs by time-kill assay; assay type: functional, organism-based; details: dose 3.0 µg/ml
[10] = test system: Escherichia coli; assay: Bactericidal activity against early exponential phase Escherichia coli assessed as bacterial killing at 3 ug/ml incubated for 6 hrs by time-kill assay; assay type: functional, organism-based; details: dose 3.0 µg/ml
[11] = test system: Escherichia coli; assay: Bactericidal activity against early exponential phase Escherichia coli assessed as bacterial killing at 3 ug/ml incubated for 12 hrs by time-kill assay; assay type: functional, organism-based; details: dose 3.0 µg/ml
[12] = test system: Staphylococcus aureus; assay: Bactericidal activity against late exponential phase Staphylococcus aureus assessed as bacterial elimination at 8 ug/ml incubated for 6 to 8 hrs by time-kill assay; assay type: functional; details: dose 8 µg/ml; time 6-8 hrs
[13] = test system: Escherichia coli; assay: Bactericidal activity against late exponential phase Escherichia coli assessed as bacterial elimination at 8 ug/ml incubated for 6 to 8 hrs by time-kill assay; assay type: functional; details: dose 8 µg/ml; time 6-8 hrs
[14] = test system: Staphylococcus aureus; assay: Resistance development in Staphylococcus aureus assessed as increase in MIC measured within 20 passages of continues culture; assay type: functional
[15] = test system: Escherichia coli; assay: Resistance development in Escherichia coli assessed as increase in MIC measured within 20 passages of continues culture; assay type: functional
[16] = test system: Staphylococcus aureus; assay: Anti-biofilim activity against Staphylococcus aureus biofilm assessed bacterial survival rate at 4 ug/ml measured after 24 hrs incubation; assay type: functional
[17] = test system: Staphylococcus aureus; assay: Anti-biofilim activity against Staphylococcus aureus biofilm assessed bacterial survival rate at 8 ug/ml measured after 24 hrs incubation; assay type: functional
[18] = test system: Staphylococcus aureus; assay: Anti-biofilim activity against Staphylococcus aureus biofilm assessed bacterial survival rate at 16 ug/ml measured after 24 hrs incubation; assay type: functional
[19] = test system: Staphylococcus aureus; assay: Anti-biofilim activity against Staphylococcus aureus biofilm assessed bio-film thickness at 32 ug/ml measured after 24 hrs incubation by SYTO 9 staining based […] laser scanning microscopy (CLSM) (reference value: 29.5 microm); assay type: functional; details: dose 32 µg/ml
[20] = test system: Staphylococcus aureus; assay: Anti-microbial activity against Staphylococcus aureus assessed as bacterial growth inhibition in presence of 0.5 to […] ug/ml PG (exogenous bacterial cell membrane component) measured after 18 hrs; assay type: functional, organism-based
[21] = test system: Staphylococcus aureus; assay: Anti-microbial activity against Staphylococcus aureus assessed as bacterial growth inhibition in presence of CL (exogenous bacterial cell membrane component) measured after 18 hrs; assay type: functional, organism-based
[22] = test system: Cell membrane; assay: Induction of membrane damage in Staphylococcus aureus assessed as nucleic acid leakage measured at 0.5 to 2 times of MIC by microplate spectrophotometry; assay type: subcellular; details: TDE = time-dependent effect
[23] = test system: Cell membrane; assay: Induction of membrane damage in Escherichia coli assessed as nucleic acid leakage measured at 0.5 to 2 times of MIC by microplate spectrophotometry; assay type: subcellular; details: TDE = time-dependent effect
[24] = test system: Staphylococcus aureus; assay: Induction of ROS level in Staphylococcus aureus assessed as increase in intracellular ROS level at 0.125 to 0.5 ug/ml measured after 4.5 hrs by ROS-sensitive fluorescent probe DCF-DA staining based assay; assay type: functional, organism-based; details: dose 0.125-0.5 µg/ml
[25] = test system: Staphylococcus aureus; assay: Up-regulation of riboflavin metabolic pathway genes in Staphylococcus aureus at 0.25 ug/ml and incubated for 4 hrs by Transcriptome analysis; assay type: functional, organism-based; details: dose 0.25 µg/ml
[26] = test system: Staphylococcus aureus; assay: Down-regulation of pyrimidine metabolic pathway genes in Staphylococcus aureus at 0.25 ug/ml and incubated for 4 hrs by Transcriptome analysis; assay type: functional, organism-based; details: dose 0.25 µg/ml
[27] = test system: Staphylococcus aureus; assay: Down-regulation of pyridoxal-phosphate-dependent enzyme in Staphylococcus aureus at 0.25 ug/ml and incubated for 4 hrs by Transcriptome analysis; assay type: functional, organism-based; details: dose 0.25 µg/ml
[28] = test system: Staphylococcus aureus; assay: Down-regulation of thiamine pyrophosphate enzyme in Staphylococcus aureus at 0.25 ug/ml and incubated for 4 hrs by Transcriptome analysis; assay type: functional, organism-based; details: dose 0.25 µg/ml
[29] = Hemolytic activity in Red blood cells (unknown origin) assessed as hemolytic rate at 1280 ug/ml relative to control; assay type: toxicity, cell-based, Erythrocyte; details: at 1280 µg/mL, read-out: Activity
[30] = Cytotoxicity against human Gastric mucosal cells measured assessed as cell morphology at 32 ug/ml measured after 24 hrs by Electron scanning microscopy; assay type: toxicity, cell-based; details: dose 32 µg/ml
[31] = Toxicity in female SPF Kunming mouse assessed as survival rate at 200 mg/kg/day, sc measured after 24 hrs; assay type: organism-based; details: in vivo
[32] = Toxicity in female SPF Kunming mouse assessed as pathological changes in heart at 200 mg/kg/day, sc measured after 24 hrs by hematoxylin and eosin staining based assay; assay type: organism-based; details: in vivo
[33] = Toxicity in female SPF Kunming mouse assessed as pathological changes in liver at 200 mg/kg/day, sc measured after 24 hrs by hematoxylin and eosin staining based assay; assay type: organism-based; details: in vivo
[34] = Toxicity in female SPF Kunming mouse assessed as pathological changes in kidney at 200 mg/kg/day, sc measured after 24 hrs by hematoxylin and eosin staining based assay; assay type: organism-based; details: in vivo
[35] = Toxicity in female SPF Kunming mouse assessed as change in WBC count at 20 mg/kg/day, ip measured after 24 hrs; assay type: organism-based; details: in vivo
[36] = Toxicity in female SPF Kunming mouse assessed as change in RBC count at 20 mg/kg/day, ip measured after 24 hrs; assay type: organism-based; details: in vivo
[37] = Toxicity in female SPF Kunming mouse assessed as change in PLT count at 20 mg/kg/day, ip measured after 24 hrs; assay type: organism-based; details: in vivo
[38] = Toxicity in female SPF Kunming mouse assessed as change in HBG count at 20 mg/kg/day, ip measured after 24 hrs; assay type: organism-based; details: in vivo
[39] = Toxicity in female SPF Kunming mouse assessed as change in ALB level at 20 mg/kg/day, ip measured after 24 hrs; assay type: organism-based; details: in vivo
[40] = Toxicity in female SPF Kunming mouse assessed as change in CREA level at 20 mg/kg/day, ip measured after 24 hrs; assay type: organism-based; details: in vivo
[41] = test system: Staphylococcus aureus; assay: In vivo antibacterial activity against methicillin-resistant Staphylococcus aureus subcutaneously infected in SPF female Kunming mouse model assessed as bacteria count in dissected mouse at 10 mg/kg/day injected into blister after 6 hrs of infection measured after 6 consecutive treatments; assay type: functional, organism-based
[42] = test system: Staphylococcus aureus; assay: In vivo antibacterial activity against methicillin-resistant Staphylococcus aureus subcutaneously infected in SPF female Kunming mouse model assessed as improvement in inflammatory cell infiltration in skin at 5 to 10 mg/kg/day injected into blister after 6 hrs of infection measured after 6 consecutive treatments by H and E staining based assay; assay type: functional, organism-based; details: dose 5-10 mg/kg/day, route […]

## CCCCCCCC[N+](C)(C)CCCCOc1cc(OCCCC[N+](C)(C)CCCCCCCC)cc(OCCCC[N+](C)(C)CCCCCCCC)c1.[Br-].[Br-].[Br-]
[1]
  MIC: 0.5 µg/mL
[2]
  MIC: 2 µg/mL
[3]
  MIC90: 2 µg/mL
[4]
  Activity: Active
[5]
  Activity: Active
[6]
  Activity: Active
[7]
  Activity: Active
[8]
  Activity: Active
[9]
  Activity: Active
[10]
  Activity: Active
[11]
  Activity: Active
[12]
  Activity: 100%
[13]
  Activity: 100%
[14]
  MIC: 0.5 µg/mL
[15]
  MIC: 1 µg/mL
[16]
  survival at 4 µg/mL: 2.3%
[17]
  survival at 8 µg/mL: 0.61%
[18]
  survival at 16 µg/mL: 0.01%
[19]
  Activity: 14.7 um
[20]
  Activity: inactive
[21]
  Activity: Active
[22]
  Activity: Tde
[23]
  Activity: Tde
[24]
  Activity: Active
[25]
  Activity: Active
[26]
  Activity: Active
[27]
  Activity: Active
[28]
  Activity: Active
[29]
  hemolysis at 1280 ug/ml: < 5%
[30]
  Activity: Non-Toxic
[31]
  survival at 24 h: 100%
[32]
  Activity: Non-Toxic
[33]
  Activity: Non-Toxic
[34]
  Activity: Non-Toxic
[35]
  Activity: Non-Toxic
[36]
  Activity: Non-Toxic
[37]
  Activity: Non-Toxic
[38]
  Activity: Non-Toxic
[39]
  Activity: Non-Toxic
[40]
  Activity: Non-Toxic
[41]
  Activity: Active
[42]
  Activity: Active

From ChEMBL document CHEMBL6071176, “Development of Phloroglucinol-Linked Tris-Quaternary Ammonium Salt Antimicrobial Peptide Mimics with Low Cytotoxicity and Broad-Spectrum Antibacterial Activity” (J Med Chem, 2024)
